According to ChEMBL document CHEMBL3102727, “Conformationally constrained ortho-anilino diaryl ureas: discovery of 1-(2-(1'-neopentylspiro[indoline-3,4'-piperidine]-1-yl)phenyl)-3-(4-(trifluoromethoxy)phenyl)urea, a potent, selective, and bioavailable P2Y1 antagonist” (J Med Chem, 2013):
In brackets after ≈: the same amount, converted by molar mass. Activity calls are given as the source filed them. No cut-off for these calls is given here.

What was measured:
[1] = Aqueous solubility of the of partial crystalline form of compound in phosphate buffer at pH 6.5; format: physicochemical
[2] = Partition coefficient, log P of the compound at pH 7 by reversed-phase HPLC method; format: physicochemical; conditions: octanol/water
P2Y purinoceptor 1 [3] = molecular target: T1, P2Y purinoceptor 1 (Homo sapiens, UniProt P47900); test: Displacement of [33P]-2MeS-ADP from human P2Y1 receptor expressed in HEK293 cells after 1 hr by scintillation counting analysis; format: cell-based
T1 sequence (P47900 whole entry): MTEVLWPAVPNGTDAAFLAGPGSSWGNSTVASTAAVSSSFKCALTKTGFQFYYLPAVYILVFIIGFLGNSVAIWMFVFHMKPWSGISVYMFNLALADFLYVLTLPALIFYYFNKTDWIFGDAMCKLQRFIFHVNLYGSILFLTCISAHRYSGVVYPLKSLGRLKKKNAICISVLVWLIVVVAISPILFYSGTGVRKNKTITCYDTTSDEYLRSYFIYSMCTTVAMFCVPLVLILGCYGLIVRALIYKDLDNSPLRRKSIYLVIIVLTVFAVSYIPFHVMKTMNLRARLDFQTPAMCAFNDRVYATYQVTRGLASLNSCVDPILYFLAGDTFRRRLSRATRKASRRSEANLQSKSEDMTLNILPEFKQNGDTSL

[4] = Metabolic stability in rat liver microsomes assessed as compound remaining after 10 mins; format: ADME; conditions: read-out: Stability
[5] = Metabolic stability in human liver microsomes assessed as compound remaining after 10 mins; format: ADME; conditions: read-out: Stability
[6] = Aqueous solubility of the amorphous form of compound in phosphate buffer at pH 6.5; format: physicochemical
P2Y purinoceptor 1 [7] = molecular target: T1, P2Y purinoceptor 1; test: Antagonist activity at P2Y1 receptor in washed human platelets assessed as 1 uM 2-methylthio-ADP-induced calcium flux by FLIPR assay; format: functional
P2Y purinoceptor 1 [8] = molecular target: T1, P2Y purinoceptor 1; test: Antagonist activity at P2Y1 receptor in platelet-enriched human plasma assessed as 2.5 uM ADP-induced platelet aggregation preincubated for 1 min followed by ADP induction measured at 5 mins by aggregometric analysis
[9] = Metabolic stability in mouse liver microsomes assessed as compound remaining after 10 mins; format: ADME, Microsome; conditions: read-out: Stability
[10] = Aqueous solubility of the crystalline form of compound in phosphate buffer at pH 6.5; format: physicochemical

Row | logP [2] | Ki (P2Y purinoceptor 1 [3]) | solubility [6] | SMILES | further results
1 | > 6.3 | 18.6 nM | – | O=C(Nc1ccc(OC(F)(F)F)cc1)Nc1ccccc1N1CC2(CCN(Cc3ccccc3)CC2)c2ccccc21 | solubility [1]: < 1 µg/mL
2 | > 6.2 | 4.6 nM | 16 µg/mL (≈ 28.2 µM) | CC(C)(C)CN1CCC2(CC1)CCN(c1ccccc1NC(=O)Nc1ccc(OC(F)(F)F)cc1)c1ccccc12 | remaining at 10 min [4]: 87%; remaining at 10 min [5]: 90%; IC50 (P2Y purinoceptor 1 [7]): 9.9 nM
3 | 5.7 | 200 nM | – | CC(C)NC(=O)N1CCC2(CC1)CN(c1ccccc1NC(=O)Nc1ccc(OC(F)(F)F)cc1)c1ccccc12 | solubility [1]: 1 µg/mL (≈ 1.76 µM)
4 | – | – | – | O=C(Nc1ccc(OC(F)(F)F)cc1)Nc1ccccc1-c1cc2ccccc2[nH]1 | Activity (P2Y purinoceptor 1 [8]): inactive; IC50 (P2Y purinoceptor 1 [3]): 75 nM
5 | – | 36.6 nM | – | O=C(Nc1ccc(OC(F)(F)F)cc1)Nc1ccccc1N1CC2(CCN(C(=O)OCc3ccccc3)CC2)c2ccccc21 | IC50 (P2Y purinoceptor 1 [7]): 5.9 nM
6 | – | 7.6 nM | – | O=C(Nc1ccc(OC(F)(F)F)cc1)Nc1ccccc1N1CC2(CCC2)c2ccccc21 | IC50 (P2Y purinoceptor 1 [7]): 10.5 nM
7 | – | 5.9 nM | < 1 µg/mL | O=C(Nc1ccc(OC(F)(F)F)cc1)Nc1ccccc1N1CC2(CCCCC2)c2ccccc21 | IC50 (P2Y purinoceptor 1 [7]): 2.2 nM
8 | – | 26 nM | – | O=C(Nc1ccc(OC(F)(F)F)cc1)Nc1ccccc1N1CC2(CC2)c2ccccc21 | –
9 | > 6.2 | 7.3 nM | – | CC1(C)CCN(c2ccccc2NC(=O)Nc2ccc(OC(F)(F)F)cc2)c2ccccc21 | remaining at 10 min [9]: 63%; remaining at 10 min [4]: 6%; remaining at 10 min [5]: 51%
10 | > 6.2 | 12.8 nM | < 1 µg/mL | CC(C)(C)CN1CCCC2(C1)CN(c1ccccc1NC(=O)Nc1ccc(OC(F)(F)F)cc1)c1ccccc12 (stereo unspecified) | –
11 | – | 20.3 nM | – | CC1(C)CN(c2ncccc2NC(=O)Nc2ccc(OC(F)(F)F)cc2)c2ccccc21 | –
12 | – | 16 nM | – | CC1(C)CCN(c2ncccc2NC(=O)Nc2ccc(OC(F)(F)F)cc2)c2ccccc21 | –
13 | > 6.2 | 5.8 nM | 1 µg/mL (≈ 1.86 µM) | CC(C)(C)CN1CCC2(C1)CN(c1ccccc1NC(=O)Nc1ccc(OC(F)(F)F)cc1)c1ccccc12 (stereo unspecified) | –
14 | 4.6 | 4500 nM | – | O=C(Nc1ccc(OC(F)(F)F)cc1)Nc1ccccc1N1CC2(CCN(CCO)CC2)c2ccccc21 | solubility [1]: 123 µg/mL (≈ 234 µM)
15 | – | 29.5 nM | – | CC1CCN(c2ccccc2NC(=O)Nc2ccc(OC(F)(F)F)cc2)c2ccccc21 (stereo unspecified) | –
16 | > 6 | 11.5 nM | 25 µg/mL (≈ 45.2 µM) | CC(C)(C)CN1CCC2(CC1)CN(c1ccccc1NC(=O)Nc1ccc(OC(F)(F)F)cc1)c1cnccc12 | remaining at 10 min [4]: 73%; remaining at 10 min [5]: 67%; IC50 (P2Y purinoceptor 1 [7]): 10.7 nM

Row | logP [2] | Ki (P2Y purinoceptor 1 [3]) | solubility [6] | SMILES | further results
17 | – | 253 nM | – | CC(C)(C)CN1CCC2(CC1)CN(c1ccccc1NC(=O)Nc1ccc(OC(F)(F)F)cc1)c1ncccc12 | IC50 (P2Y purinoceptor 1 [7]): 503 nM
18 | 4.4 | 13500 nM | 5 µg/mL (≈ 9.25 µM) | O=C(O)CN1CCC2(CC1)CN(c1ccccc1NC(=O)Nc1ccc(OC(F)(F)F)cc1)c1ccccc12 | –
19 | 4.3 | 4500 nM | – | O=C(Nc1ccc(OC(F)(F)F)cc1)Nc1ccccc1N1CC2(CCNCC2)c2ccccc21 | solubility [1]: 84 µg/mL (≈ 174 µM)
20 | 5.7 | 65 nM | – | O=C(Nc1ccc(OC(F)(F)F)cc1)Nc1ccccc1N1CCOc2ccccc21 | –
21 | > 6.2 | 28.7 nM | 5 µg/mL (≈ 9.03 µM) | CC(C)(C)CN1CCC2(CC1)CN(c1ccccc1NC(=O)Nc1ccc(OC(F)(F)F)cc1)c1cccnc12 | –
22 | 4.6 | 690 nM | 100 µg/mL (≈ 201 µM) | CN1CCC2(CC1)CN(c1ccccc1NC(=O)Nc1ccc(OC(F)(F)F)cc1)c1ccccc12 | –
23 | – | 39 nM | – | CC1(C)CN(c2ccccc2NC(=O)Nc2ccc(OC(F)(F)F)cc2)c2ccccc2O1 | –
24 | – | 6.6 nM | – | O=C(Nc1ccc(OC(F)(F)F)cc1)Nc1ccccc1N1CC2(CCCC2)c2ccccc21 | –
25 | 5.5 | 94 nM | – | CN1CCN(c2ccccc2NC(=O)Nc2ccc(OC(F)(F)F)cc2)c2ccccc21 | –
26 | – | 830 nM | – | O=C(Nc1ccc(OC(F)(F)F)cc1)Nc1ccccc1N1CCCCc2ccccc21 | –
27 | – | – | – | O=C(Nc1ccc(OC(F)(F)F)cc1)Nc1cccnc1-c1cc2ccccc2[nH]1 | Activity (P2Y purinoceptor 1 [8]): inactive; IC50 (P2Y purinoceptor 1 [3]): 227 nM
28 | – | 36.5 nM | – | O=C(Nc1ccc(OC(F)(F)F)cc1)Nc1ccccc1N1CCCc2ccccc21 | –
29 | 5.1 | 617 nM | 428 µg/mL (≈ 773 µM) | CC(C)(C)CN1CCC2(CC1)CN(c1ccccc1NC(=O)Nc1ccc(OC(F)(F)F)cc1)c1ccncc12 | IC50 (P2Y purinoceptor 1 [7]): 346 nM
30 | 5.1 | 390 nM | 66 µg/mL (≈ 122 µM) | COCCN1CCC2(CC1)CN(c1ccccc1NC(=O)Nc1ccc(OC(F)(F)F)cc1)c1ccccc12 | –
31 | 6 | 13.3 nM | – | COC(=O)N1CCC2(CC1)CN(c1ccccc1NC(=O)Nc1ccc(OC(F)(F)F)cc1)c1ccccc12 | solubility [10]: 1 µg/mL (≈ 1.85 µM)

Row | SMILES | logP [2] | Ki (P2Y purinoceptor 1 [3]) | solubility [6] | further results
32 | CC(C)CN1CCC2(CC1)CN(c1ccccc1NC(=O)Nc1ccc(OC(F)(F)F)cc1)c1ccccc12 | 5.5 | 20.7 nM | – | solubility [1]: 7 µg/mL (≈ 13 µM); remaining at 10 min [4]: 84%; remaining at 10 min [5]: 79%
33 | CC(C)N1CCC2(CC1)CN(c1ccccc1NC(=O)Nc1ccc(OC(F)(F)F)cc1)c1ccccc12 | 4.5 | – | – | solubility [1]: 71 µg/mL (≈ 135 µM)
